# Entries after “also recorded” stand apart in the source; their conditions may differ. Like-named read-outs stand apart in the source and are kept apart here.
# Assays:
# [1] = test system: genomic DNA of LN229 MGMT−/MMR+ cells; experiment: Genomic DNA denaturing gel electrophoresis; assay type: cell-based, human; settings: 200 μM, 24 h
# Experimental: Genomic DNA Denaturing Gel Electrophoresis. Cells were trypsinized, washed with 1×PBS, and stored at −80° C. prior to processing. Genomic DNA was extracted with the DNeasy Blood & Tissue Kit (Qiagen) per kit protocol. A 0.7% agarose gel was prepared in 100 mM NaCl-2 mM EDTA (pH 8) and soaked in 40 mM NaOH-1 mM EDTA running buffer for 2 h. Genomic DNA (400 ng/well) was then loaded in 1× BlueJuice loading buffer (Invitrogen) and subjected to electrophoresis at 2 V/cm for 30 min, followed by 3 V/cm for 2 h. The gel was neutralized in 150 mM NaCl-100 mM Tris (pH 7.4) for 30 min, twice, and then stained with 1× SYBR Gold in 150 mM NaCl-100 mM Tris (pH 7.4) for 90 min. Imaging was performed on a ChemiDoc XRS+ Molecular Imager (Bio-Rad).
# [2] = test system: four isogenic LN229 glioblastoma cell lines (MGMT+/−, MMR+/−); assay type: cell-based; settings: for therapeutic index: IC50 in MGMT proficient and MMR proficient cells divided by IC50 in MGMT deficient and MMR deficient cells (FIG. 8); for cytotoxicity and selectivity in the four isogenic cell lines (in words): LN229 MGMT+/−, MMR+/− cells
# Experimental: Short-term Cell Viability Assay. Cells were seeded in 96-well plates at 1000 or 2000 cells/well and allowed to adhere at 23° C. for 60 min and then incubated overnight at 37° C. Cells were treated with indicated concentrations of compounds in triplicate for 4-6 days prior to fixation with 3.7% paraformaldehyde and nuclear staining with 1 μg/mL Hoechst 33342 dye. Cells were imaged on a Cytation 3 imaging reader (BioTek) and quantified using CellProfiler software.
# Statistical analysis. Statistical analysis was performed using GraphPad Prism software. Data are presented as mean or median±SD or SEM as indicated. For in vitro short-term growth delay experiments, IC50 values were determined from the nonlinear regression equation, [inhibitor] vs normalized response with variable slope. For micronuclei assays, comparisons were made with one-way ANOVA and Sidak correction for multiple comparisons. For xenograft growth delay experiments, comparisons were made with Mann-Whitney test (for comparison of 2 groups) or Kruskal-Wallis test with FDR-adjusted p-values with Q set to 5% (for comparison of ≥3 groups). For xenograft survival analysis, Kaplan-Meier analysis was used to evaluate survival rate based on death or removal from study when body weight loss exceeded 20% of initial body weight
# We synthesized the imidazotetrazine 4a (KL-50) and the triazene 4b (KL-85), as vehicles to deliver 2-fluoroethyl diazonium (4c), and a series of related agents to probe structure-activity relationships in tissue culture (FIG. Z1, D and F). The 2-fluoropropyl- and 3-fluoropropyl-triazenes (10 and 11, respectively) were prepared by diazotization of 4-aminoimdazole-5-carboxamide, followed by the addition of the respective amine. All other triazenes were prepared according to literature procedures. We evaluated the cytotoxicity of our compounds in short-term cell viability assays against four isogenic LN229 glioblastoma cell lines engineered to be proficient or deficient in MGMT and/or MMR activity, using short hairpin RNAs (shRNAs) targeting MSH2 (referred to as MGMT+/−, MMR+/− cells hereafter; FIG. ZS2A). This approach allowed us to rapidly and rigorously interrogate the relationship between MGMT and MMR status and compound activity.
# The compounds 10a through 10l and TMZ were tested in the short-term cell viability assay.
Compound,crosslinked genomic DNA (in words) [1],therapeutic index [2],selectivity for MGMT-deficient cells ([2]; LN229 MGMT+ versus MGMT− cells) [fold],cytotoxicity and selectivity in the four isogenic cell lines (in words) [2],cytotoxicity and selectivity in the four isogenic cell lines (in words) ([2]; listed as 4a),cytotoxicity and selectivity in the four isogenic cell lines (in words) ([2]; listed as N-methyl KL50)
"NC(=O)c1ncn2c(=O)n(CCF)nnc12 [KL-50, 3-(2-fluoroethyl)-4-oxo-3H,4H-imidazo[4,3-d][1,2,3,5]tetrazine-8-carboxamide]",presence of crosslinked DNA,26.64,~25,"preferable toxicity for MGMT− cells compared to MGMT^+ cells, regardless of MMR status",mirrored that of 4b,
"CNC(=O)c1ncn2c(=O)n(CCF)nnc12 [Compound I-1, 3-(2-fluoroethyl)-N-methyl-4-oxo-3H,4H-imidazo[4,3-d][1,2,3,5]tetrazine-8-carboxamide]",,,,,,"comparable to those for KL50 itself; also recorded: preferable toxicity for MGMT− cells compared to MGMT^+ cells, regardless of MMR status"
"Cn1nnc2c(C(N)=O)ncn2c1=O [TMZ, temozolomide, reference compound]",no evidence of ICL induction,less than one,,,,

# — patent publication US20240400572A1, “COMPOUNDS AND METHODS FOR TREATING CANCERS THAT ARE MGMT DEFICIENT REGARDLESS OF MMR STATUS” (Yale University, priority 2021, published 2024)
